Source: patent US7718637B2, “(20S)-23,23-difluoro-methylene-19-nor-bishomopregnacalciferol-vitamin D analogs” (Wisconsin Alumni Research Foundation, priority 2007, dated 2010)
Like-named read-outs stand apart in the source and are kept apart here.

Assays:
[1] = Bone calcium mobilization (serum calcium) in vitamin D-deficient rats; assay type: in vivo, Sprague-Dawley rats; conditions: FIG. 4
Protocol: (§1) Intestinal Calcium Transport and Bone Calcium Mobilization
(§2) Male, weanling Sprague-Dawley rats were placed on Diet 11 (0.47% Ca) diet +AEK oil for one week followed by Diet 11 (0.02% Ca) +AEK oil for 3 weeks. The rats were then switched to a diet containing 0.47% Ca for one week followed by two weeks on a diet containing 0.02% Ca. Dose administration began during the last week on 0.02% calcium diet. Four consecutive ip doses were given approximately 24 hours apart. Twenty-four hours after the last dose, blood was collected from the severed neck and the concentration of serum calcium determined as a measure of bone calcium mobilization. The first 10 cm of the intestine was also collected for intestinal calcium transport analysis using the everted gut sac method.

[2] = system: 24-hydroxylase (24Ohase) gene promoter in ROS 17/2.8 (bone) cells; assay: In vitro transcription assay (24-hydroxylase promoter luciferase reporter); assay type: cell-based; conditions: FIG. 3; for EC50: ROS 17/2.8 cells, 24-hydroxylase promoter-luciferase, read-out: EC50, transcriptional activity in bone cells
Protocol: In Vitro Transcription Assay
Transcription activity was measured in ROS 17/2.8 (bone) cells that were stably transfected with a 24-hydroxylase (24Ohase) gene promoter upstream of a luciferase reporter gene (Arbour et al., 1998). Cells were given a range of doses. Sixteen hours after dosing the cells were harvested and luciferase activities were measured using a luminometer.
RLU=relative luciferase units.

HL-60 cells = assay: HL-60 differentiation (nitro blue tetrazolium reduction); assay type: cell-based, Human; conditions: FIG. 2; for EC50: HL-60 cells, read-out: EC50, HL-60 cell differentiation
Protocol: The study drugs were dissolved in ethanol and the concentrations determined using UV spectrophotometry. Serial dilutions were prepared so that a range of drug concentrations could be tested without changing the final concentration of ethanol (≦0.2%) present in the cell cultures.
Human promyelocytic leukemia (HL60) cells were grown in RPMI-1640 medium containing 10% fetal bovine serum. The cells were incubated at 37° C. in the presence of 5% CO2.
HL60 cells were plated at 1.2×10^5 cells/ml. Eighteen hours after plating, cells in duplicate were treated with drug. Four days later, the cells were harvested and a nitro blue tetrazolium reduction assay was performed (Collins et al., 1979; J. Exp. Med. 149:969-974). The percentage of differentiated cells was determined by counting a total of 200 cells and recording the number that contained intracellular black-blue formazan deposits. Verification of differentiation to monocytic cells was determined by measuring phagocytic activity (data not shown).

[3] = biological target: T1, full-length recombinant rat vitamin D receptor (Rattus norvegicus, UniProt P13053); assay: Vitamin D receptor binding (competition with [3H]-1,25(OH)2D3); conditions: full-length recombinant rat VDR; FIG. 1
T1 construct: Full-length recombinant rat receptor was expressed in E. coli BL21 (DE3) Codon Plus RIL cells; histidine tag (C); made in house; host or cells: E. coli BL21 (DE3) Codon Plus RIL
T1 sequence (P13053 1-423): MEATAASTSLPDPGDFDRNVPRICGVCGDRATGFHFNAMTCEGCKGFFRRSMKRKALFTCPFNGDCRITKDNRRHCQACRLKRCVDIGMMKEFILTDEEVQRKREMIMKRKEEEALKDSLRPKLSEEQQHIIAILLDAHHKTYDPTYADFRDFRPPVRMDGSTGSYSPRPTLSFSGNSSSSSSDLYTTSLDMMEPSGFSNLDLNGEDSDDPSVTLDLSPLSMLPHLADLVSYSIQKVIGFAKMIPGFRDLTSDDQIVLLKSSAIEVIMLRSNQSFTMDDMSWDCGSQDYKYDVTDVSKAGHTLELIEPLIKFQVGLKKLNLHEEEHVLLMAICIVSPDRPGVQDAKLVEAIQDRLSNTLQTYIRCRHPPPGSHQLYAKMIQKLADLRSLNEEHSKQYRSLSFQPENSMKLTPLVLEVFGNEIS
Description: Vitamin D Receptor Binding
Full-length recombinant rat receptor was expressed in E. coli BL21 (DE3) Codon Plus RIL cells and purified to homogeneity using two different column chromatography systems. The first system was a nickel affinity resin that utilizes the C-terminal histidine tag on this protein. The protein that was eluted from this resin was further purified using ion exchange chromatography (S-Sepharose Fast Flow). Aliquots of the purified protein were quick frozen in liquid nitrogen and stored at −80° C. until use. For use in binding assays, the protein was diluted in TEDK50 (50 mM Tris, 1.5 mM EDTA, pH7.4, 5 mM DTT, 150 mM KCl) with 0.1% Chaps detergent. The receptor protein and ligand concentration were optimized such that no more than 20% of the added radiolabeled ligand was bound to the receptor.
Radiolabeled and unlabeled ligands were added to 100 mcl of the diluted protein at a final ethanol concentration of ≦10%, mixed and incubated overnight on ice to reach binding equilibrium. The following day, 100 mcl of hydroxylapatite slurry (50%) was added to each tube and mixed at 10-minute intervals for 30 minutes. The hydroxylapaptite was collected by centrifugation and then washed three times with Tris-EDTA buffer (50 mM Tris, 1.5 mM EDTA, pH 7.4) containing 0.5% Titron X-100. […] Total binding was determined from the tubes containing only radiolabeled ligand.

[4] = Intestinal calcium transport (everted gut sac method) in vitamin D-deficient rats; assay type: in vivo, Sprague-Dawley rats; conditions: FIG. 5; for intestinal calcium transport: everted gut sac
Protocol: as §1, §2

Row | EC50 (HL-60 cells; Homo sapiens) | Ki [3] | binding to vitamin D receptor compared to standard 1,25-(OH)2D3 (in words) [3] | SMILES | bone calcium mobilization ([1]; 2340 pmol/day ip for 4 consecutive days, vitamin D-deficient rats, 0.02% Ca diet) | bone calcium mobilization ([1]; 35100 pmol/day, vitamin D-deficient rats, 0.02% Ca diet) | bone calcium mobilization activity compared to 1,25(OH)2D3 (in words) ([1]; overall) | transcriptional activity in bone cells compared to 1α,25-dihydroxyvitamin D3 (in words) [2] | EC50 [2] | potency on HL-60 cell differentiation compared to 1,25(OH)2D3 (in words) (HL-60 cells) | intestinal calcium transport ([4]; 2340 pmol/day) | intestinal calcium transport ([4]; 35100 pmol/day) | intestinal calcium transport activity compared to 1,25(OH)2D3 (in words) ([4]; overall) | serum calcium levels (bone calcium mobilization) ([1]; native hormone, dose not given, vitamin D-deficient rats, 0.02% Ca diet) | EC50 (HL-60 cells) | intestinal calcium transport ([4]; 87 pmol/day)
1 | 10 nM | 0.05 nM | bound almost equally to the receptor | C=C1[C@H](O)CC(=C/C=C2\CCC[C@]3(C)[C@@H]([C@@H](C)CC(F)F)CC[C@@H]23)C[C@H]1O [FF-55, (20S)-23,23-difluoro-1α-hydroxy-2-methylene-19-nor-bishomopregnacalciferol] | did not result in mobilization of bone calcium | without any effect | very little bone calcium mobilization activity | about the same transcriptional activity | 3 nM | almost as potent as 1,25(OH)2D3 | does not promote intestinal calcium transport | significant intestinal calcium transport activity | very little activity |  |  | 
2 |  |  |  | C=C1/C(=C\C=C2/CCC[C@]3(C)[C@@H]([C@H](C)CCCC(C)(C)O)CC[C@@H]23)C[C@@H](O)C[C@@H]1O [1α,25-dihydroxyvitamin D3, reference compound] |  |  |  |  | 0.3 nM |  |  |  |  | increased serum calcium levels | 3 nM | promotes a significant increase
